One assay deals with T1, GPR3 (Homo sapiens, UniProt P46089).
T1 construct: expressed in transfected cells; host or cells: CHO cells
The experiment in a line: GPR3 antagonist functional cAMP assay (LANCE Ultra cAMP TR-FRET, CHO cells stably expressing GPR3). It counts as cell-based. Particulars: CHO cells stably expressing GPR3, cAMP assay (Example 24). The essentials:
(§1)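 Read-out was TR-FRET cAMP signal at 665 nm after 1 h at room temperature, following 45 min compound exposure at 37 °C. Assay buffer contained 0.1% BSA and 150 μM Ro 20-1724. Antagonist IC50s were fitted with a 4-parameter logistic against DMSO and reference controls.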
On the technique in general: cAMP levels reflect the balance of adenylyl cyclase and phosphodiesterase activity.

A further assay concerns the target T2, GPR6 (Homo sapiens, UniProt P46095).
T2 construct: expressed in transfected cells; host or cells: CHO cells
Kind of assay: GPR6 antagonist functional cAMP assay (LANCE Ultra cAMP TR-FRET, CHO cells stably expressing GPR6). It counts as cell-based. The settings on record: CHO cells stably expressing GPR6, cAMP assay (Example 24). The procedure, abridged:
as §1

T1 sequence (P46089 whole entry, species assumed): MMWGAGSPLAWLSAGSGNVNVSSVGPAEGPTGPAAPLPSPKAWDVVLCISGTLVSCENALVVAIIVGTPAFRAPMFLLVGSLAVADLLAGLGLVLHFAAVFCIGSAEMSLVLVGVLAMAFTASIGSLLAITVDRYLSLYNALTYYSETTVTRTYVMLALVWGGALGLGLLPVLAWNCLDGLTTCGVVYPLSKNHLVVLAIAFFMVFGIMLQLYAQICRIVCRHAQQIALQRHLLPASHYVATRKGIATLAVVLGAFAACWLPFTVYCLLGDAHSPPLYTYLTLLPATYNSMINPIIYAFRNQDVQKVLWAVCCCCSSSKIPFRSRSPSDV
T2 sequence (P46095 whole entry): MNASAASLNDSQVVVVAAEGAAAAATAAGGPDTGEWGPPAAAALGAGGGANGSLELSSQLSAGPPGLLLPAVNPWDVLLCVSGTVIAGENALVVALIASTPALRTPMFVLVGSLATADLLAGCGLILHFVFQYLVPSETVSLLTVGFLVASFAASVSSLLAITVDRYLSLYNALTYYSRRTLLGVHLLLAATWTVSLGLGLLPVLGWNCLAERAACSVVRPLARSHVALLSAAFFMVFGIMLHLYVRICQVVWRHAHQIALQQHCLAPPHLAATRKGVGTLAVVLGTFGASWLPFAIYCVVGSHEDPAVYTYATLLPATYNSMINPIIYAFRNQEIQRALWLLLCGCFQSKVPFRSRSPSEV

Usually IC50 stands for the point on the concentration scale where inhibition reaches its midpoint. Low readings indicate inhibition by little substance, high ones a need for much substance. On to `CC(=O)N1CCc2nc(N3CCC(Oc4ccc(F)cc4F)CC3)c(-c3cccc(NC(C)C)n3)nc2C1` [Compound 103, 1-{2-[4-(2,4-difluorophenoxy)piperidin-1-yl]-3-{6-[(propan-2-yl)amino]pyridin-2-yl}-5H,6H,7H,8H-pyrido [3,4-b]pyrazin-6-yl}ethan-1-one], for which the IC50 against GPR3 is ≥ 30000 nM; at GPR6 it was 1000 to 30000 nM.
In the case of `COc1cccc(-c2nc3cnccc3nc2N2CC3(CC(Oc4ccc(F)cc4F)C3)C2)n1` [Compound 104, 6-(2,4-difluorophenoxy)-2-[3-(6-methoxypyridin-2-yl)pyrido[3,4-b]pyrazin-2-yl]-2-azaspiro[3.3]heptane], the IC50 against GPR3 and at GPR6 was 1000 to 30000 nM throughout.
On to `CC(=O)N1CCc2nc(N3CCC(Oc4ccc(F)cc4F)CC3)c(-c3ccc(F)c(=O)[nH]3)nc2C1` [Compound 105, 6-{6-acetyl-2-[4-(2,4-difluorophenoxy)piperidin-1-yl]-5H,6H,7H,8H-pyrido[3,4-b]pyrazin-3-yl}-3-fluoro-1,2-dihydropyridin-2-one], for which the IC50 on GPR3 and at GPR6 was 1000 to 30000 nM in each case.
Consider `CC(=O)N1CCc2nc(N3CCC(Oc4ccc(F)cc4F)CC3)c(-c3cnn4c3CN(C(C)=O)CC4)nc2C1` [Compound 107, 1-(3-{6-acetyl-2-[4-(2,4-difluorophenoxy)piperidin-1-yl]-5H,6H,7H,8H-pyrido[3,4-b]pyrazin-3-yl}-4H,5H,6H,7H-pyrazolo[1,5-a]pyrazin-5-yl)ethan-1-one], for which the IC50 against GPR3 and against GPR6 was 1000 to 30000 nM throughout.
As for `CC(=O)N1CCc2nc(N3CCC(Oc4ccc(F)cc4F)CC3)c(-c3cnn4c3CNCC4)nc2C1` [Compound 108, 1-{2-[4-(2,4-difluorophenoxy)piperidin-1-yl]-3-{4H,5H,6H,7H-pyrazolo[1,5-a]pyrazin-3-yl}-5H,6H,7H,8H-pyrido[3,4-b]pyrazin-6-yl}ethan-1-one], the IC50 against GPR3 and on GPR6 was 1000 to 30000 nM each time.
Regarding `CC(=O)N1CCc2nc(N3CCC(Oc4ccc(F)cc4F)CC3)c(-c3cnn4c3CN(C)CC4)nc2C1` [Compound 110, 1-{2-[4-(2,4-difluorophenoxy)piperidin-1-yl]-3-{5-methyl-4H,5H,6H,7H-pyrazolo[1,5-a]pyrazin-3-yl}-5H,6H,7H,8H-pyrido[3,4-b]pyrazin-6-yl}ethan-1-one], the IC50 against GPR3 and against GPR6 was 1000 to 30000 nM each time.
As for `COc1nccc(-c2nc3c(nc2N2CCC(Oc4ccc(F)cc4F)CC2)CCN(C(C)=O)C3)n1` [Compound 111, 1-{2-[4-(2,4-difluorophenoxy)piperidin-1-yl]-3-(2-methoxypyrimidin-4-yl)-5H,6H,7H,8H-pyrido[3,4-b]pyrazin-6-yl}ethan-1-one], the IC50 on GPR3 and against GPR6 was 100 to 1000 nM each time.
Take `COc1ncccc1-c1nc2c(nc1N1CCC(Oc3ccc(F)cc3F)CC1)CCN(C(C)=O)C2` [Compound 112, 1-{2-[4-(2,4-difluorophenoxy)piperidin-1-yl]-3-(2-methoxypyridin-3-yl)-5H,6H,7H,8H-pyrido[3,4-b]pyrazin-6-yl}ethan-1-one]: the half-maximal inhibitory concentration (IC50) against GPR3 and against GPR6 was 1000 to 30000 nM throughout.
As for `CC(=O)N1CCc2nc(N3CCC(Oc4ccc(F)cc4F)CC3)c(-c3cccn(C)c3=O)nc2C1` [Compound 113, 3-{6-acetyl-2-[4-(2,4-difluorophenoxy)piperidin-1-yl]-5H,6H,7H,8H-pyrido[3,4-b]pyrazin-3-yl}-1-methyl-1,2-dihydropyridin-2-one], the IC50 was ≥ 30000 nM against GPR3 and 1000 to 30000 nM at GPR6.
For `CC(=O)N1CCc2nc(-c3cn[nH]c3)c(N3CCC(Oc4ccc(F)cc4F)CC3)nc2C1` [Compound 115, 1-{3-[4-(2,4-difluorophenoxy)piperidin-1-yl]-2-(1H-pyrazol-4-yl)-5H,6H,7H,8H-pyrido[3,4-b]pyrazin-6-yl}ethan-1-one] the same measures were 1000 to 30000 nM and 100 to 1000 nM.
For the compound `CC(=O)N1CCc2nc(N3CCC(Oc4ccc(F)cc4F)CC3)c(-c3c[nH]c(C)n3)nc2C1` [Compound 116, 1-{2-[4-(2,4-difluorophenoxy)piperidin-1-yl]-3-(2-methyl-1H-imidazol-4-yl)-5H,6H,7H,8H-pyrido[3,4-b]pyrazin-6-yl}ethan-1-one], the IC50 against GPR3 is 1000 to 30000 nM; against GPR6 it was 100 to 1000 nM.
For `CNc1cccc(-c2nc3c(nc2N2CCC(Oc4ccc(F)cc4F)CC2)CCN(C(C)=O)C3)n1` [Compound 117, 1-{2-[4-(2,4-difluorophenoxy)piperidin-1-yl]-3-[6-(methylamino)pyridin-2-yl]-5H,6H,7H,8H-pyrido[3,4-b]pyrazin-6-yl}ethan-1-one] the same measures were 1000 to 30000 nM and 100 to 1000 nM.
Regarding `N#CCN1CCc2nc(N3CCC(Oc4ccc(F)cc4F)CC3)c(-c3cnn(C4CCCCO4)c3)nc2C1` (stereo not shown) [Compound 118, 2-{2-[4-(2,4-difluorophenoxy)piperidin-1-yl]-3-[1-(oxan-2-yl)-1H-pyrazol-4-yl]-5H,6H,7H,8H-pyrido[3,4-b]pyrazin-6-yl}acetonitrile], the IC50 on GPR3 and against GPR6 was 1000 to 30000 nM throughout.
As to `N#CCN1CCc2nc(N3CCC(Oc4ccc(F)cc4F)CC3)c(-c3cn[nH]c3)nc2C1` [Compound 119, 2-{2-[4-(2,4-difluorophenoxy)piperidin-1-yl]-3-(1H-pyrazol-4-yl)-5H,6H,7H,8H-pyrido[3,4-b]pyrazin-6-yl}acetonitrile], the IC50 at GPR3 lay in the range of 1000 to 30000 nM; at GPR6, 100 to 1000 nM.
For `O=C(N1CCOCC1)N1CCc2nc(N3CCC(Oc4ccc(F)cc4F)CC3)c(-c3cn[nH]c3)nc2C1` [Compound 120, 4-{2-[4-(2,4-difluorophenoxy)piperidin-1-yl]-3-(1H-pyrazol-4-yl)-5H,6H,7H,8H-pyrido[3,4-b]pyrazine-6-carbonyl}morpholine], the IC50 is 1000 to 30000 nM on GPR3 and 100 to 1000 nM against GPR6.
For the compound `CC(C)OC(=O)N1CCc2nc(N3CCC(Oc4ccc(F)cc4F)CC3)c(-c3cn[nH]c3)nc2C1` [Compound 121, propan-2-yl 2-[4-(2,4-difluorophenoxy)piperidin-1-yl]-3-(1H-pyrazol-4-yl)-c5H,6H,7H,8H-pyrido[3,4-b]pyrazine-6-carboxylate], the results for the IC50 on GPR3 and against GPR6 were 1000 to 30000 nM and 100 to 1000 nM, respectively.
For the compound `CCS(=O)(=O)N1CCc2nc(N3CCC(Oc4ccc(F)cc4F)CC3)c(-c3cn[nH]c3)nc2C1` [Compound 123, 4-(2,4-difluorophenoxy)-1-[6-(ethanesulfonyl)-3-(1H-pyrazol-4-yl)-5H,6H,7H,8H-pyrido[3,4-b]pyrazin-2-yl]piperidine], the IC50 was in the range of 1000 to 30000 nM against GPR3 and 100 to 1000 nM at GPR6.
For `Fc1ccc(OC2CCN(c3nc4c(nc3-c3cn[nH]c3)CNCC4)CC2)c(F)c1` [Compound 124, 4-(2,4-difluorophenoxy)-1-[3-(1H-pyrazol-4-yl)-5H,6H,7H,8H-pyrido[3,4-b]pyrazin-2-yl]piperidine], the IC50 at GPR3 and on GPR6 was 1000 to 30000 nM each time.
On to `COC(=O)N1CCc2nc(N3CCC(Oc4ccc(F)cc4F)CC3)c(-c3cnn(C4CCCCO4)c3)nc2C1` (stereo not shown) [Compound 125, methyl 2-[4-(2,4-difluorophenoxy)piperidin-1-yl]-3-[1-(oxan-2-yl)-1H-pyrazol-4-yl]-5H,6H,7H,8H-pyrido[3,4-b]pyrazine-6-carboxylate], for which the IC50 against GPR3 was in the range of 1000 to 30000 nM; against GPR6, 100 to 1000 nM.
For `COc1ccc(-c2nc3c(nc2N2CCC(Oc4ccc(F)cc4F)CC2)CCN(C(C)=O)C3)cn1` [Compound 126, 1-{2-[4-(2,4-difluorophenoxy)piperidin-1-yl]-3-(6-methoxypyridin-3-yl)-5H,6H,7H,8H-pyrido[3,4-b]pyrazin-6-yl}ethan-1-one] the same measures were 1000 to 30000 nM and 100 to 1000 nM.
For the compound `Cn1cc(-c2nc3cnccc3nc2N2CCN(Cc3ccc(F)cc3F)C(=O)C2)cn1` [Compound 127, 1-[(2,4-difluorophenyl)methyl]-4-[3-(1-methyl-1H-pyrazol-4-yl)pyrido[3,4-b]pyrazin-2-yl]piperazin-2-one], the IC50 against GPR3 and against GPR6 was ≥ 30000 nM each time.
Regarding `Cn1cc(-c2nc3cnccc3nc2N2CCN(C(=O)c3ccc(F)cc3F)CC2)cn1` [Compound 128, (2,4-difluorophenyl)(4-(3-(1-methyl-1H-pyrazol-4-yl)pyrido[3,4-b]pyrazin-2-yl)piperazin-1-yl)methanone], the half-inhibitory concentration (IC50) against GPR3 is ≥ 30000 nM; at GPR6, 1000 to 30000 nM.
Consider `CC(=O)N1CCc2nc(N3CCC(Oc4ccc(F)cc4F)CC3)c(-c3cccc4nccn34)nc2C1` [Compound 129, 1-{2-[4-(2,4-difluorophenoxy)piperidin-1-yl]-3-{imidazo[1,2-a]pyridin-5-yl}-5H,6H,7H,8H-pyrido[3,4-b]pyrazin-6-yl}ethan-1-one], for which the IC50 at GPR3 and against GPR6 was 1000 to 30000 nM in each case.
Consider `Fc1ccc(-c2ncc3n2CCN(c2nc4ccncc4nc2-c2cn[nH]c2)C3)c(F)c1` [Compound 130, 4-{2-[3-(2,4-difluorophenyl)-5H,6H,7H,8H-imidazo[1,5-a]pyrazin-7-yl]pyrido[3,4-b]pyrazin-3-yl}-1H-pyrazole], for which the IC50 at GPR3 and on GPR6 was ≥ 30000 nM throughout.
Consider `CC(=O)N1CCc2nc(N3CCC(Oc4ccc(F)cc4F)CC3)c(-c3cccc(C(=O)N(C)C)n3)nc2C1` [Compound 131, 6-(6-acetyl-2-(4-(2,4-difluorophenoxy)piperidin-1-yl)-5,6,7,8-tetrahydropyrido[3,4-b]pyrazin-3-yl)-N,N-dimethylpicolinamide], for which the IC50 at GPR3 and against GPR6 was 1000 to 30000 nM each time.
On to `CNC(=O)c1cccc(-c2nc3c(nc2N2CCC(Oc4ccc(F)cc4F)CC2)CCN(C(C)=O)C3)n1` [Compound 132, 6-{6-acetyl-2-[4-(2,4-difluorophenoxy)piperidin-1-yl]-5H,6H,7H,8H-pyrido[3,4-b]pyrazin-3-yl}-N-methylpyridine-2-carboxamide], for which the IC50 against GPR3 and at GPR6 was 1000 to 30000 nM in each case.
